The values below are quoted from earlier work in publication PMC6006448 (ACS Chemical Biology, 2018).

The series deals with Rac1 and Cdc42.

`COc1ccc2cc([C@@H](C)C(=O)O)ccc2c1` [R-naproxen]: the “action on Rac1 and Cdc42 in a cellular setting” value was “inhibitor”.
